IC50 data for 27 molecules are collected here from US6987092B1, “Indigoid bisindole derivatives” (Faustus Forschungs Cie. Translational Cancer Research GmbH, priority 1999, dated 2006).

For experiment [1], the system named is cells of the large-cell lung carcinoma of the tumor line LXFL-529L. Briefly: Tumor cell growth inhibition, SRB-assay, LXFL-529L. It counts as cell-based. The following applies: 50% growth inhibition, three days incubation in serum-containing medium. (In general: In SRB staining, fixed cells bind dye roughly in proportion to their protein.)
Experiment [2] relates to cells of the mammary carcinoma cell line MCF-7. The experiment in a line: Tumor cell growth inhibition, SRB-assay, MCF-7. Type of experiment: cell-based. The following applies: 50% growth inhibition, three days incubation in serum-containing medium.

Where a name gives a salt, the structure may show the parent alone.

For the molecule “3-{3′-[iminooxy-O-(2-L-arabinopyranosylethyl)]-(2′H3′H)indol-2′-ylidene}-(2H3H)indol-2-one [Example 49]”, the IC50 (commonly the concentration that inhibits the measured activity by half) is 20.5 ± 1.4 µM in experiment [1] and 5 ± 0.7 µM in experiment [2].

For the molecule `O=C1Nc2ccccc2C1=C1Nc2ccccc2C1=NOCCN(CCO)CCO` [Example 60, 3-{3′-[iminooxy-O-((N,N)-bis(hydroxyethyl)-2-amino-ethyl)]-(2′H3′H)indol-2′-ylidene}-(2H3H)indol-2-one], the IC50 in experiment [1] came out at 3 ± 0.4 µM; in experiment [2], 4.5 ± 0.5 µM. On to `NCC(=O)Nc1ccc2c(c1)C(=C1Nc3ccccc3C1=O)C(=O)N2` [Example 18, 2-amino-N-[3-(3′-oxo-(2′H3′H)indol-2′-ylidene)-(2H3H)indol-2-one-5-yl]-acetamide], for which the IC50 in experiment [1] is 4 ± 0.4 µM; in experiment [2], 3 ± 0.3 µM. The corresponding values for “3-[3′-[iminooxy-O-(N-(1-deoxy-glucitol)-2-amino-ethyl)]-(2H′3H′)indol-2′-ylidene]-5-methyl-(2H3H)indol-2-one [Example 69]” are 3.5 ± 0.7 µM and 2.5 ± 0.9 µM. Regarding `CN1CCN(CCON=C2C(=C3C(=O)Nc4ccccc43)Nc3ccccc32)CC1` [Example 65, 3-{3′-[iminooxy-O-(2-(4-methyl-piperazin-1-yl)-ethyl)]-(2′H3′H)indol-2′-ylidene}-(2H3H)indol-2-one], the IC50 in experiment [2] came out at 7.5 ± 0.8 µM.

Turning to `CN(C)C(=O)CON=C1C(=C2C(=O)Nc3ccccc32)Nc2ccccc21` [Example 43, N,N-dimethyl-2{O-[2′-(2-oxo-(2H3H)indol-3-ylidene)-(2′H3′H)indol-3′-ylidene]-aminooxy}-acetamide], the IC50 in experiment [1] came out at 7 ± 1.1 µM; in experiment [2], 9.2 ± 0.9 µM. The corresponding values for `Cc1ccc2c(c1)C(=C1Nc3ccccc3C1=NOCCO)C(=O)N2` [Example 67, 3-[3′-[iminooxy-O-(2-hydroxy-ethyl)]-(2H′3H′)indol-2′-ylidene]-5-methyl-(2H3H)indol-2-one] are 1 ± 0.5 µM and 1.5 ± 0.6 µM. On the same counts, the results for `CC(N)C(=O)Nc1ccc2c(c1)C(=C1Nc3ccccc3C1=O)C(=O)N2` (stereo not shown) [Example 19, 2-amino-N-[3-(3′-oxo-(2′H3′H)indol-2′-ylidene)-(2H3H)indol-2-one-5-yl]-propionamide] are 7 ± 0.7 µM and 5 ± 0.6 µM. As for `CC(C)(O)CON=C1C(=C2C(=O)Nc3ccccc32)Nc2ccccc21` [Example 34, 3-{3′-[iminooxy-O-((2-hydroxy-2-methyl)-propyl)]-(2′H3′H)indol-2′-ylidene}-(2H3H)indol-2-one], the concentration for half-maximal inhibition (IC50) is 2 ± 0.5 µM in experiment [1] and 2 ± 0.3 µM in experiment [2]. On to `CC(=O)Nc1ccc2c(c1)C(=C1Nc3ccccc3C1=O)C(=O)N2` [Example 16, 5-acetylamino-indirubin], for which, in experiment [1], the IC50 stood at 10 ± 0.8 µM.

For the molecule `O=C1Nc2ccccc2C1=C1Nc2ccccc2C1=NOCCNC[C@H](O)[C@@H](O)[C@H](O)[C@H](O)CO` [Example 55, 3-{3′-[iminooxy-O-(N-(1-deoxy-glucitol)-2-amino-ethyl)]-(2′H3′H)indol-2′-ylidene}-(2H3H)indol-2-one], the IC50 in experiment [1] came out at 3 ± 0.6 µM; in experiment [2] it was 3 ± 0.8 µM. “3-{3′-[iminooxy-O-(2-(2-amino-2-deoxy-D-glucopyranosyl)-ethyl)]-(2′H3′H)indol-2′-ylidene}-(2H3H)indol-2-one [Example 53]”: the IC50 in experiment [1] amounted to 15 ± 0.9 µM; in experiment [2] it was 7 ± 0.7 µM.

For the molecule “3-{3′-[iminooxy-O-(2-(2-amino-2-deoxy-D-galactopyranosyl)-ethyl)]-(2′H3′H)indol-2′-ylidene}(2H3H)indol-2-one [Example 54]”, the results for the IC50 in experiment [1] and in experiment [2] were 16 ± 1.1 µM and 9 ± 0.9 µM, respectively. On the same counts, the results for `COC(=O)CNS(=O)(=O)c1ccc2c(c1)C(=C1Nc3ccccc3C1=O)C(=O)N2` [Example 24, methyl-2-{[3-(3′-oxo-(2′H3′H)indol-2′-ylidene)-(2H3H)indol-2-one-5-yl]-sulfonylamino}-acetate] are 16 ± 0.8 µM and 25 ± 0.9 µM. For the molecule “3-{3′-[iminooxy-O-(2-(2-amino-ethyl)-amino-ethyl)]-(2′H3′H)indol-2′-ylidene}-(2H3H)indol-2-one [Example 66]”, the IC50 in experiment [1] stood at 7 ± 0.6 µM; in experiment [2], 8 ± 1.2 µM. The corresponding values for `O=C1Nc2ccccc2C1=C1Nc2ccccc2C1=NOCCNCCO` [Example 59, 3-{3′-[iminooxy-O-(N-hydroxyethyl-2-amino-ethyl)]-(2′H3′H)indol-2′-ylidene}-(2H3H)indol-2-one] are 11.6 ± 0.8 µM and 13.6 ± 1.2 µM. As to `O=C1Nc2ccccc2C1=C1Nc2ccccc2C1=NOCCCCCCCCCCN(CCO)CCO` [Example 62], the IC50 in experiment [1] was found to be 14 ± 1 µM; in experiment [2], 13.5 ± 1.3 µM.

Regarding `CN(C)C(=O)Cc1ccc2c(c1)C(=C1Nc3ccccc3C1=O)C(=O)N2` [Example 10, N,N-dimethyl-2-[3-(3′-oxo-(2′H3′H)indol-2′-ylidene)-(2H3H)indol-2-one-5-yl]-acetamide], the 50% inhibitory concentration (IC50) in experiment [1] was 16 ± 0.9 µM; in experiment [2], 20 ± 1.3 µM. As to `CCOP(=O)(Cc1ccc2c(c1)C(=C1Nc3ccccc3C1=O)C(=O)N2)OCC` [Example 14, diethyl-{[3-(3′-oxo-(2′H3′H)indol-2′-ylidene)-(2H3H)indol-2-one-5-yl]-methyl}-phosphonate], the IC50 in experiment [1] was found to be 6.5 ± 1.2 µM; in experiment [2], 6 ± 1.1 µM. In the case of `COC(=O)CNC(=O)Cc1ccc2c(c1)C(=C1Nc3ccccc3C1=O)C(=O)N2` [Example 12, methyl-2-{2-[3-(3′-oxo-(2′H3′H)indol-2′-ylidene)-(2H3H)indol-2-one-5-yl]-acetylamino}-acetate], the IC50 was 8 ± 0.8 µM in experiment [1] and 6.5 ± 1.2 µM in experiment [2].

As to `CC(C)c1ccc2c(c1)/C(=C1/Nc3ccccc3C1=O)C(=O)N2` [Example 3, 5-isopropyl-indirubin], the IC50 worked out at 4 ± 0.2 µM in experiment [1] and 0.5 ± 0.2 µM in experiment [2]. In the case of `O=C1Nc2ccc(CC(=O)N3CCNCC3)cc2C1=C1Nc2ccccc2C1=O` [Example 6, 5-[2-(piperazin-1-yl)-ethan-2-one-1-yl]-indirubin], the IC50 is 4 ± 0.5 µM in experiment [1] and 8 ± 0.9 µM in experiment [2]. As for `O=C1Nc2ccccc2C1=C1Nc2ccccc2C1=NOCCN1CCOCC1` [Example 64, 3-{3′-[iminooxy-O-(2-(morpholin-4-yl)-ethyl)]-(2′H3′)indol-2′-ylidene}-(2H3H)indol-2-one], the results for the IC50 in experiment [1] and in experiment [2] were 10 ± 0.6 µM and 9 ± 1.2 µM, respectively. Regarding `NC(=O)CON=C1C(=C2C(=O)Nc3ccccc32)Nc2ccccc21` [Example 42, 2-{O-[2′-(2-oxo-(2H3H)indol-3-ylidene)-(2′H3′H)indol-3′-ylidene]-aminooxy}-acetamide], the IC50 in experiment [1] was 2 ± 0.3 µM; in experiment [2], 6 ± 0.5 µM. In turn, `O=C(O)Cc1ccc2c(c1)C(=C1Nc3ccccc3C1=O)C(=O)N2` [Example 5, 5-(carboxymethyl)-indirubin] yielded an IC50 in experiment [2] of 19.5 ± 1.4 µM.

In experiment [1], `O=C1Nc2ccccc2C1=C1Nc2ccccc2C1=NOCCN[C@H]1C(O)O[C@H](CO)[C@H](O)[C@@H]1O` (stereo partly shown) [Example 57, 3-{3′-[iminooxy-O-(N-(2-deoxy-galactose)-2-amino-ethyl)]-(2′H3′H)indol-2′-ylidene}-(2H3H)indol-2-one] gave an IC50 of 23 ± 1.4 µM. As for `O=C(O)CCON=C1C(=C2C(=O)Nc3ccccc32)Nc2ccccc21` [Example 36, 3-{O-[2′-(2-oxo-(2H3H)indol-3-ylidene)-(2′H3′H)indol-3′-ylidene]-aminooxy}-propionic Acid (Sodium Salt)], the IC50 in experiment [2] turned out to be 16 ± 0.7 µM.
